Assays:
Type in all cases: cell-based
hROMK (human Kir1.1) = hROMK (human Kir1.1) (Homo sapiens (Human), UniProt P48048); assay: Thallium Flux Assay; conditions: CHO T-Rex hROMK stable cell line, 10-point concentration response; read-out: hROMK Th+ Flux IC50
In short: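 CHO T-Rex cells, doxycycline-induced (0.5 μg/ml) one day before, FluxOR dye-loaded; compounds 30 min, then Tl+ stimulus (final 3 mM Tl2SO4, 0.15 mM K2SO4) with ouabain in chloride-free buffer. Fluorescence 488/525 nm for 90 s; IC50 from 10-point curve; DMSO 0.5 or 1%.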

hERG = hERG (Homo sapiens (Human), UniProt Q12809); assay: hERG Manual Patch Clamp Assay; conditions: for inhibition at 1 µM / inhibition at 3 µM / inhibition at 10 µM: human, HEK 293 cells stably expressing hERG channels; for inhibition at 1 µM: pH 7.4, 1 μM, read-out: hERG EP IC50 (% Inhibition at 1 μM); for inhibition at 3 µM: pH 7.4, 3 uM, read-out: hERG EP % Inhibition at 3 uM; for inhibition at 10 µM: pH 7.4, 10 uM, read-out: hERG EP % Inhibition at 10 uM
Description: hERG Manual Patch Clamp Assay
hERG electrophysiology assay: The experimental compounds were assessed for hERG activity on HEK 293 cells stably expressing hERG channels using patch clamp technique. Coverslips plated with hERG expressing cells were placed in the experimental chamber and were perfused with a solution composed of (in mM): 140 NaCl, 4 KCl, 1.8 CaCl2, 1 MgCl2, 10 Glucose, 10 HEPES (pH 7.4, NaOH) at room temperature. Borosilicate patch pipettes had tip resistances of 2-4 Mohms when filled with an internal solution containing: 130 KCl, 1 MgCl2, 1 CaCl2, 10 EGTA, 10 HEPES, 5 ATP-K2 (pH 7.2, KOH). The cells were clamped at −80 mV in whole cell configuration using an Axopatch 200B (Axon instruments, Union City, Calif.) patch clamp amplifier controlled by pClamp (Axon instruments) software. Upon formation of a gigaseal, the following voltage protocol was repeatedly (0.05 Hz) applied to record tail currents: depolarization step from −80 mV to +20 mV for 2 seconds followed by a hyperpolarization step to −65 mV (3 seconds) to elicit tail currents. Compounds were applied after stabilization of tail current. First, tail currents were recorded in presence of extracellular solution alone (control) and subsequently, in extracellular solution containing increasing compound concentrations. Each compound concentration was applied for 2-5 minutes. The percentage inhibition at each concentration was calculated as reduction in peak tail current with respect to the peak tail current recorded in the presence of control solution. Data analysis was performed in a custom made template. The percent inhibitions at different concentrations were plotted to obtain a concentration response curve, which was subsequently fitted with a four parameter equation to calculate hERG IC50 value.
A lower hERG % Inhibition value indicates less inhibition of the hERG current

hROMK = hROMK (Homo sapiens (Human), UniProt P48048); assay: ROMK Manual Patch Clamp Assay; conditions: whole-cell manual patch clamp, hROMK expressing cells; read-out: hROMK EP IC50
Description: ROMK Manual Patch Clamp Assay
Cell culture conditions: Cells were maintained in conditions similar to those for Thallium flux assay. hROMK channel expression was induced by adding 0.6 μg/ml of Doxycycline 16-24 hrs prior to the experiments. On the day of experiment, the cells were dissociated using Versene, resuspended in growth media and plated onto coverslips 15 minutes prior to use.
Electrophysiology: The coverslip plated with cells was placed in the experiment chamber perfused with bath solution composed of (in mM): 135 NaCl, 5 KCl, 2 CaCl2, 1 MgCl2, 10 HEPES, 5 Glucose (pH 7.4). Patch pipettes with resistance between 2-5 Megaohms, when filled with a solution containing (in mM): 135 KCl, 1 EGTA, 1 MgCl2, 10 HEPES, 2 Na2ATP (pH 7.3), were used to form gigaseals. The cells were voltage clamped at −75 mV in whole-cell configuration using an Axopatch 200b or Multiclamp 700b (Molecular Devices) amplifier controlled by pClamp Software (Molecular Devices). The current was recorded by applying a voltage step to −120 mV every 10 seconds. For each compound, 4-6 concentrations were applied for 3-8 minutes in a successive manner starting with the lowest concentration. At the end of the experiment, the cells were perfused with bath solution containing 2 mM Ba^2+ to isolate the contribution of hROMK current.
Data analysis: Raw current values (5 traces each for control, different compound concentration and Ba^2+ treatment groups) were exported from Clampfit into Microsoft Excel where the current remaining after application of Ba^2+ was subtracted from raw current to obtain hROMK specific current. These hROMK current values (average of 5 traces for each group) were then imported into a custom made template to generate a concentration response curve, which was subsequently fitted with a four parameter equation to calculate the IC50 value of the test compound.
The data in Table 4 is reported with two significant figures.

Sequence of hROMK (P48048 whole entry): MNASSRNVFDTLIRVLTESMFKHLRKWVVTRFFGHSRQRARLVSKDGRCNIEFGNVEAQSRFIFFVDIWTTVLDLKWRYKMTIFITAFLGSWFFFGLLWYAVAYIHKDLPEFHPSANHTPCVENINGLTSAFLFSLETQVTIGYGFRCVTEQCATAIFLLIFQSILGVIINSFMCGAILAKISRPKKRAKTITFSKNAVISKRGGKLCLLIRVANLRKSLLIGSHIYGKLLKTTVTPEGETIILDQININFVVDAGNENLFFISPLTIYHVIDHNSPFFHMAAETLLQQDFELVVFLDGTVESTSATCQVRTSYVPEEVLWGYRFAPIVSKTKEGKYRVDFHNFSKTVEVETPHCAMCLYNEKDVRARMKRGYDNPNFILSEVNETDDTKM
Sequence of hROMK (human Kir1.1) (P48048 whole entry): as above
Sequence of hERG (Q12809 whole entry): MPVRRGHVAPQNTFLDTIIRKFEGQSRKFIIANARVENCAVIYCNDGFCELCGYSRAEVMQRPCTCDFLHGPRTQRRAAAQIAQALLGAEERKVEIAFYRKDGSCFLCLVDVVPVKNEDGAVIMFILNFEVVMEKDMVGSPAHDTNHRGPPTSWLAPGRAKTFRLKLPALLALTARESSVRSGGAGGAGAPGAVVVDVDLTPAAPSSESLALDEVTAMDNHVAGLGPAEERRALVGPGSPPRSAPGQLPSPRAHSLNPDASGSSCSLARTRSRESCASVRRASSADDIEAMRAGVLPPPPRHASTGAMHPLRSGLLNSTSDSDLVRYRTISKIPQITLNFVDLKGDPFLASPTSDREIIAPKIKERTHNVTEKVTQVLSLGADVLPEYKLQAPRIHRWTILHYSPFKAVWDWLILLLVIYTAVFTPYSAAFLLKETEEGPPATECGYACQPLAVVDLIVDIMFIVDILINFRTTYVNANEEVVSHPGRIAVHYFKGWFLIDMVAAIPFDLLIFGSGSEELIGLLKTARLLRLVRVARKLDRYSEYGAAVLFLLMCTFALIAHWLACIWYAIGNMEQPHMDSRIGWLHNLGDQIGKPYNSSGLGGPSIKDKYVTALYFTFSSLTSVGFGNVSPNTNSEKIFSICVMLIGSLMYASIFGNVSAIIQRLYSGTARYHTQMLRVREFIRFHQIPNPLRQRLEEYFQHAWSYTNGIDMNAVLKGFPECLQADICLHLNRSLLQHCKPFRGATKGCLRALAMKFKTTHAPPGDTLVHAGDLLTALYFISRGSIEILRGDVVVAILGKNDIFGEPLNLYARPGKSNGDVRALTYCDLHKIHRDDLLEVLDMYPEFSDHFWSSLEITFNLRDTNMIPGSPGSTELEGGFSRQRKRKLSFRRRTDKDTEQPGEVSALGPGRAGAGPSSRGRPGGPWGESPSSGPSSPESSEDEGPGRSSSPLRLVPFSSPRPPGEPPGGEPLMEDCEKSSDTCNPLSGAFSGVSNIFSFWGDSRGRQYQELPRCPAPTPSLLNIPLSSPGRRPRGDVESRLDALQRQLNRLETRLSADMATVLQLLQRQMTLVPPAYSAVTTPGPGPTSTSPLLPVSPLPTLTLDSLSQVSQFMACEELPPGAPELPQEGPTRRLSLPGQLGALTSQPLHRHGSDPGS

SMILES | IC50 (hROMK (human Kir1.1)) [nM] | inhibition at 1 µM (hERG) [%] | inhibition at 3 µM (hERG) [%] | inhibition at 10 µM (hERG) [%] | IC50 (hROMK) [nM] | hERG EP IC50 (% Inhibition at 1 μM) (hERG; 1 μM, HEK 293 cells stably expressing hERG) [% @1 μM]
Cc1c(C(O)CN2CCc3nc(-n4ccnc4)ncc3C2)ccc2c1COC2=O (single isomer, unassigned) [Example 66-I, 5-(2-(2-(1H-imidazol-1-yl)-7,8-dihydro-pyrido[4,3-d]pyrimidin-6(5H)-yl)-1-hydroxyethyl)-4-methylisobenzofuran-1(3H)-one] | 362 | 6 | 14 | 30 |  | 
Cc1c(C(O)CN2CCc3nc(-n4ccnc4C)ncc3C2)ccc2c1COC2=O (single isomer, unassigned) [Example 59-I, 5-(1-hydroxy-2-(2-(2-methyl-1H-imidazol-1-yl)-7,8-dihydropyrido[4,3-d]pyrimidin-6(5H)-yl)ethyl)-4-methyl isobenzofuran-1(3H)-one] | 224 | 13 | 27 | 51 |  | 
Cc1cn(-c2ncc3c(n2)CCN(CC(O)c2ccc4c(c2C)COC4=O)C3)cn1 (single isomer, unassigned) [Example 58-I, 5-(1-hydroxy-2-(2-(4-methyl-1H-imidazol-1-yl)-7,8-dihydropyrido[4,3-d]pyrimidin-6(5H)-yl)ethyl)-4-methyl isobenzofuran-1(3H)-one] | 62 | 9 | 20 | 42 | 13 | 
Cc1c(C(O)CN2CCc3nc(Nc4cccnc4)ncc3C2)ccc2c1COC2=O (single isomer, unassigned) [Example 54-I, 5-(1-hydroxy-2-(2-(pyridin-3-ylamino)-7,8-dihydropyrido[4,3-d]pyrimidin-6(5H)-yl)ethyl)-4-methylisobenzofuran-1(3H)-one] | 217 | 32 |  |  |  | 
Cc1c(C(O)CN2CCc3nc(-n4cc(C#N)c5ccccc54)ncc3C2)ccc2c1COC2=O (single isomer, unassigned) [Example 8-I, 1-(6-(2-hydroxy-2-(4-methyl-1-oxo-1,3-dihydroisobenzofuran-5-yl)ethyl)-5,6,7,8-tetrahydropyrido[4,3-d]pyrimidin-2-yl)-1H-indole-3-carbonitrile] | 28 | 98 |  |  |  | 
Cc1c(C(O)CN2CCc3nc(-n4cnc5ncccc54)ncc3C2)ccc2c1COC2=O (single isomer, unassigned) [Example 53-I, 5-(2-(2-(1H-imidazo[4,5-b]pyridin-1-yl)-7,8-dihydropyrido[4,3-d]pyrimidin-6(5H)-yl)-1-hydroxyethyl)-4-methylisobenzofuran-1(3H)-one] | 135 | 13 | 34 |  | 87 | 
Cc1c(C(O)CN2CCc3cc(Nc4ccc(C#N)c(F)c4)ccc3C2)ccc2c1COC2=O (single isomer, unassigned) [Example 32-I, 2-fluoro-4-((2-(2-hydroxy-2-(4-methyl-1-oxo-1,3-dihydroisobenzofuran-5-yl)ethyl)-1,2,3,4-tetrahydroisoquinolin-6-yl)amino) benzonitrile] | 50 | 100 |  |  |  | 
Cc1c(C(O)CN2CCc3nc(-n4ncc5c(C#N)cncc54)ncc3C2)ccc2c1COC2=O (single isomer, unassigned) [Example 43-I, 1-(6-(2-hydroxy-2-(4-methyl-1-oxo-1,3-dihydroisobenzofuran-5-yl)ethyl)-5,6,7,8-tetrahydropyrido[4,3-d]pyrimidin-2-yl)-1H-pyrazolo[3,4-c]pyridine-4-carbonitrile] | 180 | 16 |  |  |  | 
Cc1c(C(O)CN2CCc3nc(-n4ncc5ncccc54)ncc3C2)ccc2c1COC2=O (single isomer, unassigned) [Example 41-I, 5-(2-(2-(1H-pyrazolo[4,3-b]pyridin-1-yl)-7,8-dihydropyrido[4,3-d]pyrimidin-6(5H)-yl)-1-hydroxyethyl)-4-methylisobenzofuran-1(3H)-one] | 60 | 11 |  |  | 23 | 
Cc1c(C(O)CN2CCc3nc(-n4ccc5cc(C#N)ccc54)ncc3C2)ccc2c1COC2=O (single isomer, unassigned) [Example 16-I, 1-(6-(2-hydroxy-2-(4-methyl-1-oxo-1,3-dihydroisobenzofuran-5-yl)ethyl)-5,6,7,8-tetrahydropyrido[4,3-d]pyrimidin-2-yl)-1H-indole-5-carbonitrile] | 380 | 25 |  |  |  | 
Cc1c(C(O)CN2CCc3nc(N4CCc5c(C#N)cccc54)ncc3C2)ccc2c1COC2=O (single isomer, unassigned) [Example 65-I, 1-(6-(2-hydroxy-2-(4-methyl-1-oxo-1,3-dihydroisobenzofuran-5-yl)ethyl)-5,6,7,8-tetrahydropyrido[4,3-d]pyrimidin-2-yl)indoline-4-carbonitrile] | 31 | 56 |  |  |  | 
Cc1c(C(O)CN2CCc3nc(-n4ccc5ncccc54)ncc3C2)ccc2c1COC2=O (single isomer, unassigned) [Example 36-I, 5-(2-(2-(1H-pyrrolo[3,2-b]pyridin-1-yl)-7,8-dihydropyrido[4,3-d]pyrimidin-6(5H)-yl)-1-hydroxyethyl)-4-methyl-isobenzofuran-1(3H)-one] | 180 | 12 |  |  |  | 
Cc1c(C(O)CN2CCc3nc(-n4ccc5c(C#N)cccc54)ncc3C2)ccc2c1COC2=O (single isomer, unassigned) [Example 1-I, 1-(6-(2-hydroxy-2-(4-methyl-1-oxo-1,3-dihydroisobenzofuran-5-yl)ethyl)-5,6,7,8-tetrahydropyrido[4,3-d]pyrimidin-2-yl)-1H-indole-4-carbonitrile] | 54 | 78 |  |  |  | 
Cc1c(C(O)CN2CCc3cc(Nc4ccc(C#N)c(F)c4)ccc3C2)ccc2c1COC2=O (single isomer, unassigned) [Example 32-II, 2-fluoro-4-((2-(2-hydroxy-2-(4-methyl-1-oxo-1,3-dihydroisobenzofuran-5-yl)ethyl)-1,2,3,4-tetrahydroisoquinolin-6-yl)amino) benzonitrile] | 83 |  |  |  |  | 97
Cc1c(C(O)CN2CCc3nc(Nc4ccc(C#N)c(F)c4)ncc3C2)ccc2c1COC2=O (single isomer, unassigned) [Example 28-I, 2-fluoro-4-((6-(2-hydroxy-2-(4-methyl-1-oxo-1,3-dihydroisobenzofuran-5-yl)ethyl)-5,6,7,8-tetrahydropyrido [4,3-d]pyrimidin-2-yl)amino)benzonitrile] | 120 | 91 |  |  |  | 
Cc1c(C(O)CN2CCc3nc(-n4nc(C#N)c5ccccc54)ncc3C2)ccc2c1COC2=O (single isomer, unassigned) [Example 60-I, 1-(6-(2-hydroxy-2-(4-methyl-1-oxo-1,3-dihydroisobenzofuran-5-yl)ethyl)-5,6,7,8-tetrahydropyrido[4,3-d]pyrimidin-2-yl)-1H-indazole-3-carbonitrile] | 30 | 92 |  |  |  | 

Reference: patent US10851108B2, “Substituted bicyclic heterocyclic compounds” (BRISTOL-MYERS SQUIBB COMPANY, priority 2016, dated 2020)
